According to patent publication US20230391841A1, “MACROCYCLIC PEPTIDES” (Herantis Pharma OYJ, priority 2019, published 2023):
Bridge positions count the residues as written; N and C are the ends. Peptide text beside a SMILES is read from it.

What was measured:
human hepatocytes = test: In vitro metabolic stability in human hepatocytes; format: in vitro ADME; settings: 1 μM, 37° C., up to 60 min
Method: The linear or macrocyclic compounds 1-8, 11-14 and 23-26 (SEQ ID NOs: 1-8, 11-14 and 23-26) were incubated in concentration 1 μM with pooled cryopreserved human hepatocytes (mixed gender; 400 pl, 1.0 million viable cells/ml) for different time points (0, 20, 40 or 60 min) at 37° C. The cell density and viability were determined by trypan blue is exclusion method. The incubation was terminated by acetonitrile. The collected samples were centrifuged for 20 min at 2272×g and analyzed. The samples were analyzed by UPLC/PDA with high resolution mass spectrometry (QE-Orbitrap-MS on DDI mode) to monitor disappearance of the compound. Verapramil 1 μM was used as a disappearance rate control. The analytical method was optimized by using the parent compounds for optimum chromatographic properties (peak shape and retention) and mass spectrometric ionization. The Ion chromatograms were extracted from the total ion chromatograms using calculated monoisotopic accurate masses with 5 mDa window. Disappearance was based on LC/MS peak areas, marking 0 min as 100%. The first-order rate constants k (min-1) of the metabolism were obtained from the slope of time versus logarithm (% of remaining compound) plot using Excel software. The in vitro half-life (t1/2) of study compound is defined as: t1/2In2/k. Calculated half-life is based on compound disappearance in human liver hepatocytes.

[1] = test system: 3D in vitro model of blood-brain barrier; test: Permeation in a 3D in vitro model of blood-brain barrier; format: in vitro ADME, human endothelial cells, rat astrocytes and cortical neurons; settings: 500 nM, 2 h
Method: Due to the interest of developing CDNF- and MANF-derived peptides for treatment of CNS diseases with peripheral route of administration, and the fact that macrocyclization can improve cell-penetration and distribution properties of peptides, the ability of the compounds to pass the blood-brain barrier was tested in an established in vitro model of the blood-brain barrier. For this purpose, macrocyclic and linear compounds were incubated at 500 nM for 2 h in a two-compartment in vitro blood-brain barrier model (n=4) followed by sample collection is and LC-MS/MS analysis.
Primary culture of astrocytes. Rat astrocytes were prepared from a E15 embryos. Briefly, pregnant female rats (Wistar, Janvier Labs) of 15 days of gestation were deeply anesthetized in a (CO2 chamber) and then killed by cervical dislocation. Fetuses were collected and immediately placed in ice-cold L15 Leibovitz medium with a 2% penicillin (10,000 U/mL) and streptomycin (10 mg/mL) solution (PS) and 1% bovine serum albumin (BSA). Full brains were treated for 20 min at 37° C. with a trypsin- EDTA solution at a final concentration of 0.05% trypsin and 0.02% EDTA. Dissociated cells were cultured in DMEM 10% fetal calf serum. Purified astrocytes were used at passage 4 (P4).
Culture of human endothelial cells. A vial of HBMEC (Primary Human Brain Microvascular Endothelial Cells, ACBRI 376) was used at a specific passage 8 (P8).
Primary culture of cortical neurons. Rat cortical neurons were cultured as described by Callizot et al., 2013 with modification. Briefly, pregnant female rats (Wistar, Janvier Labs) of […] were deeply anesthetized in a CO2 chamber and then killed by cervical io dislocation. Fetuses were collected and immediately placed in ice-cold L15 Leibovitz medium with a 2% penicillin (10,000 U/mL) and streptomycin (10 mg/mL) solution (PS) and 1% bovine serum albumin (BSA). Cortices were treated for 20 min at 37° C. with a trypsin-EDTA solution at a final concentration of 0.05% trypsin and 0.02% EDTA. The dissociation was stopped by addition of Dulbecco's modified Eagle's medium (DMEM) with 4.5 g/L of glucose, containing is DNAse I grade II (final concentration 0.5 mg/m L) and 10% fetal calf serum (FCS). Cells were mechanically dissociated by three forced passages through the tip of a 10-m1 pipette. Cells were then centrifuged at 515×g for 10 min at 4° C. The pellet resuspended in a defined culture medium consisting of Neurobasal medium with a 2% solution of B27 supplement, 2 mmol/L of L-glutamine, 2% of PS solution, 10 ng/mL of brain-derived neurotrophic factor (BDNF). Viable cells were counted in a Neubauer cytometer, using the trypan blue exclusion test. The cortical neurons were seeded in the bottom of well pre-coated with poly-L-lysine at a density of 255,000 per well in 24-well plate with insert and cultured at 37° C. in an air (95%)-CO2 (5%) incubator. The culture medium was changed every other day.
Co-Culture of endothelial cells, astrocytes and primary cortical neurons. The procedure was performed as previously published (Xue et al., 2013 with modifications, Callizot et al., 2017). Briefly, on day 0, purified astrocytes (P4) were rapidly thawed in a water bath at 37° C. The cells were immediately put in DMEM containing 10% of FCS. Cell suspension was centrifuged at 515×g for 5 min at 4° C. and the pellets were suspended in DMEM F12 containing 10% of FCS. Cells were seeded in the outer side of the insert membrane (PET, 1 μm) at the density of 45,000 cells per insert and cultured at 37° C. in an air (95%)-CO2 (5%) incubator. Thirty-six (36) hours after the astrocytes seeding, HBMEC (P8) were rapidly thawed in a water bath at 37° C. and immediately put in DMEM containing 10% of FCS. Cell suspension was centrifuged at 515×g for 5 min at 4° C. and the pellets were suspended in EGM-2 bullet kit containing 5% of FCS, 1% of PS solution, 1.4 μM of Hydrocortisone, 5 μg/mL of acid ascorbic, 1% of lipid mixture, 10 mM of HEPES, 1 ng/mL of bFGF. […]

[2] = In vitro metabolic stability in rat plasma; format: in vitro ADME; settings: 1 μM, 37° C., up to 120 min
Method: The linear and macrocyclic compounds 1-14 and 23-26 (SEQ ID NOs: 1-14 and 23-26) were incubated in concentration 1 μM with rat plasma (Sprague-Dawley, male; 400 μl) for different time points (0, 20, 40, 60 or 120 min) at 37° C. The incubation was terminated by acetonitrile. The collected samples were centrifuged for 20 min at 2272×g and analyzed. io Stock solutions were prepared using 50% DMSO, and the compounds were spiked 1/100 to incubation to have final DMSO content of 0.5%. The samples were analyzed by UHPLC/PDA with high resolution mass spectrometry (QE-Orbitrap-MS on DDI mode) to monitor disappearance of the compound. Enalapril 1 μM was used as a disappearance rate control. For analysis of compounds 9, 10, 13 and 14 stock solutions were prepared with PBS, and samples were analyzed by UHPLC-ToF mass spectrometry. The analytical method was optimized by using the parent compounds for optimum chromatographic properties (peak shape and retention) and mass spectrometric ionization. The ion chromatograms were extracted from the total ion chromatograms using calculated monoisotopic accurate masses with 5 mDa window. Disappearance was based on LC/MS peak areas, marking 0 min as 100%.
The first-order rate constants k (min-1) of the metabolism were obtained from the slope of time versus logarithm (% of remaining compound) plot using Excel software. The in vitro half-life (t1/2) of study compound is defined as: t1/2=In2/k. Calculated half-life is based on compound disappearance from rat plasma.

Compound	stability in human hepatocytes as compared to linear counterpart (human hepatocytes)	ability to pass through the in vitro blood-brain barrier as compared to linear counterpart [1]	stability in rat plasma as compared to linear counterpart [2]
CC[C@H](C)[C@@H]1NC(=O)[C@H](CCC(N)=O)NC(=O)[C@H](CCCCN)NC(=O)[C@H](CC(C)C)NC(=O)[C@H](CCC(=O)O)NC(=O)[C@H](C)NC(=O)[C@H](C(C)C)NC(=O)[C@H](CCCNC(=N)N)NC(=O)[C@H](CCSC)NC(=O)[C@H](CCCCN)NC(=O)[C@H](CCC(=O)O)NC(=O)[C@H](C)NC(=O)[C@@H]2CSSC[C@H](NC(=O)[C@H](CCC(=O)O)NC(=O)[C@H](CCC(=O)O)NC(=O)CNC(=O)[C@H](Cc3c[nH]c4ccccc34)NC(=O)[C@H](CO)NC(=O)[C@H](Cc3c[nH]cn3)NC(=O)[C@H](CC(C)C)NC1=O)C(=O)N[C@@H](CCCNC(=N)N)C(=O)N[C@@H](C)C(=O)N2 [Compound 6] (cyclo(ACAEKMRVAELKQILHSWGEECR); disulfide 2-22)	significantly improved stability	improved ability to pass	
C[C@@H]1NC(=O)[C@@H]2CSSC[C@H](NC(=O)[C@H]([C@@H](C)O)NC(=O)[C@H](CCC(=O)O)NC(=O)CNC(=O)[C@H](Cc3c[nH]c4ccccc34)NC(=O)[C@H](CO)NC(=O)[C@H](CCCCN)NC(=O)[C@H](CCC(=O)O)NC1=O)C(=O)N[C@@H](CCCCN)C(=O)NCC(=O)N2 [Compound 14, WGETCKGCAEKS] (cyclo(AEKSWGETCKGC); disulfide 9-12)	significantly improved stability	improved ability to pass	improved stability
C[C@@H]1NC(=O)[C@@H]2CSSC[C@H](NC(=O)[C@H](CCC(=O)O)NC(=O)[C@H](CCC(=O)O)NC(=O)CNC(=O)[C@H](Cc3c[nH]c4ccccc34)NC(=O)[C@H]([C@@H](C)O)NC(=O)[C@H](CCCCN)NC(=O)[C@H](CCC(=O)O)NC1=O)C(=O)N[C@@H](CCCNC(=N)N)C(=O)N[C@@H](C)C(=O)N2 [Compound 12, WGEECRACAEKT] (cyclo(ACAEKTWGEECR); disulfide 2-11)	significantly improved stability	improved ability to pass	
CC[C@H](C)[C@@H]1NC(=O)[C@H](CO)NC(=O)[C@H](CCCCN)NC(=O)[C@H](CCC(=O)O)NC(=O)[C@H](C)NC(=O)[C@@H]2CSSC[C@H](NC(=O)[C@H]([C@@H](C)O)NC(=O)[C@H](CCC(=O)O)NC(=O)CNC(=O)[C@H](Cc3c[nH]c4ccccc34)NC(=O)[C@H](CC(=O)O)NC(=O)[C@H](CC(=O)O)NC(=O)[C@H](CC(C)C)NC1=O)C(=O)N[C@@H](CCCCN)C(=O)NCC(=O)N2 [Compound 10, KSILDDWGETCKGCAE] (cyclo(AEKSILDDWGETCKGC); disulfide 13-16)			improved stability
C[C@@H]1NC(=O)[C@@H]2CSSC[C@H](NC(=O)[C@H]([C@@H](C)O)NC(=O)[C@H](CCC(=O)O)NC(=O)CNC(=O)[C@H](Cc3c[nH]c4ccccc34)NC(=O)[C@H](CO)NC(=O)[C@H](CCCCN)NC(=O)[C@H](CCC(=O)O)NC1=O)C(=O)N[C@@H](CCCCN)C(=O)NCC(=O)NCC(=O)N2 [Compound 26, WGETCKGGCAEKS] (cyclo(AEKSWGETCKGGC); disulfide 9-13)	significantly improved stability	improved ability to pass	improved stability
CC[C@H](C)[C@@H]1NC(=O)[C@H](CCCCN)NC(=O)[C@H](CCCCN)NC(=O)[C@H](CC(C)C)NC(=O)[C@H](CCC(=O)O)NC(=O)[C@H](CCCCN)NC(=O)[C@H](C(C)C)NC(=O)[C@H](CCCNC(=N)N)NC(=O)[C@H](CC(C)C)NC(=O)[C@H](CCCCN)NC(=O)[C@H](CCC(=O)O)NC(=O)[C@H](C)NC(=O)[C@@H]2CSSC[C@H](NC(=O)[C@H]([C@@H](C)O)NC(=O)[C@H](CCC(=O)O)NC(=O)CNC(=O)[C@H](Cc3c[nH]c4ccccc34)NC(=O)[C@H](CC(=O)O)NC(=O)[C@H](CC(=O)O)NC(=O)[C@H](CC(C)C)NC1=O)C(=O)N[C@@H](CCCCN)C(=O)NCC(=O)N2 [Compound 8] (cyclo(AEKLRVKELKKILDDWGETCKGC); disulfide 20-23)		improved ability to pass	improved stability
C[C@@H]1NC(=O)CNC(=O)[C@H](CCCNC(=N)N)NC(=O)[C@@H]2CSSC[C@H](NC1=O)C(=O)N[C@@H](C)C(=O)N[C@@H](CCC(=O)O)C(=O)N[C@@H](CCCCN)C(=O)N[C@@H]([C@@H](C)O)C(=O)N[C@@H](Cc1c[nH]c3ccccc13)C(=O)NCC(=O)N[C@@H](CCC(=O)O)C(=O)N[C@@H](CCC(=O)O)C(=O)N2 [Compound 24, WGEECRGACAEKT] (cyclo(ACAEKTWGEECRG); disulfide 2-11)	significantly improved stability	improved ability to pass	
